ChEMBL document CHEMBL1201862, “PubChem BioAssay data set” (2004)
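Compound exposure: 48 hours, 5 concentrations, 96-well plates. Here, GI50 denotes the concentration required for 50% inhibition of growth.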 The source made the active and inactive calls. No stated cut-off is given here; in the data, active = GI50 up to about 1.1 µM and inactive = higher.

Legend:
Assay in all cases: NCI tumour cell line growth inhibition, 48 h
U-251 = system: U-251
SNB-75 = system: SNB-75
Malme-3M = system: Malme-3M
TK-10 = system: TK-10
A498 = system: A498
UACC-62 = system: UACC-62
M14 = system: M14
HOP-62 = system: HOP-62
SK-MEL-2 = system: SK-MEL-2
A549 = system: A549
UACC-257 = system: UACC-257
SK-OV-3 = system: SK-OV-3
NCI-H522 = system: NCI-H522

Measured: GI50

NC(=O)c1ncn(C2OC(CO)C(O)C2O)c1O (centres undefined)
inactive: U-251 > 100 µM | SNB-75 > 100 µM | Malme-3M > 100 µM | TK-10 > 100 µM | A498 > 100 µM | UACC-62 > 100 µM | M14 > 100 µM | HOP-62 > 100 µM | SK-MEL-2 > 100 µM | A549 > 100 µM

Cc1ccc2nc3c(C)cc(=O)cc-3sc2c1
inactive: U-251 31.8 µM | UACC-257 20.2 µM | SNB-75 32.7 µM | Malme-3M 27.3 µM | TK-10 22.7 µM | SK-OV-3 59.6 µM | UACC-62 14.1 µM | M14 19.6 µM | HOP-62 27.5 µM | SK-MEL-2 20 µM | NCI-H522 17.8 µM | A549 20.1 µM

COC(=O)NC(=O)c1cn(C2OC(CO)C(O)C2O)c(=O)[nH]c1=O (centres undefined)
inactive: U-251 > 100 µM | UACC-257 > 100 µM | SNB-75 > 100 µM | Malme-3M > 100 µM | TK-10 > 100 µM | SK-OV-3 > 100 µM | UACC-62 > 100 µM | M14 > 100 µM | HOP-62 > 100 µM | SK-MEL-2 > 100 µM | NCI-H522 > 100 µM | A549 > 100 µM

CN(C)CCNC(=O)c1c2ccccc2cc2ccccc12
inactive: U-251 41.3 µM | UACC-257 18.5 µM | SNB-75 42.9 µM | Malme-3M 34.1 µM | TK-10 30.5 µM | SK-OV-3 > 100 µM | A498 31.5 µM | UACC-62 20 µM | M14 16.7 µM | HOP-62 55.7 µM | SK-MEL-2 8 µM | A549 34.6 µM

O=C(N/C(=C\c1ccc([N+](=O)[O-])cc1)c1nc2c(O)nc(S)nc2[nH]1)c1ccccc1
inactive: U-251 > 100 µM | Malme-3M > 100 µM | TK-10 > 100 µM | SK-OV-3 > 100 µM | UACC-62 > 100 µM | M14 > 100 µM | SK-MEL-2 > 100 µM | NCI-H522 57.1 µM | A549 > 100 µM

OCCN(CCO)c1cccc(N(CCO)CCO)c1
inactive: U-251 > 100 µM | UACC-257 > 100 µM | SNB-75 > 100 µM | TK-10 > 100 µM | SK-OV-3 > 100 µM | A498 > 100 µM | UACC-62 72.8 µM | M14 > 100 µM | HOP-62 > 100 µM | SK-MEL-2 > 100 µM | NCI-H522 > 100 µM | A549 > 100 µM

O=C(CC1C(=O)Nc2ccccc2[S+]1[O-])Nc1ccc(Cl)cc1 (centres undefined)
inactive: U-251 35.7 µM | UACC-257 69.5 µM | SNB-75 29.4 µM | Malme-3M 98.2 µM | TK-10 > 100 µM | SK-OV-3 30.1 µM | UACC-62 37 µM | M14 > 100 µM | HOP-62 33.7 µM | SK-MEL-2 > 100 µM | NCI-H522 > 100 µM | A549 > 100 µM
